Several values for one entry are separate records, joined by “and”; a condition that tells them apart may be missing. Equal entries are not always repeated. Entries after “also recorded” stand apart in the source; their conditions may differ.
Assays:
Format in all cases: in vivo, human
[1] = tested on: solid malignancies (tumor neovasculature); experiment: DCE-MRI (Ktr) in CA4P clinical trials
Method: The results in the CA4P trials were variable. In DCE-MRI, the rate constant Ktrans (Ktr), representing the rate of passage of gadolinium from the plasma into the tumor interstitium, is determined. Ktr itself is determined as a function of both tumor blood flow and vascular permeability, thus serving as a marker of the status of the tumor neovasculature.

[2] = tested on: metastatic thyroid carcinoma; experiment: Open-label phase II study of oral sorafenib in metastatic thyroid carcinoma: best response by RECIST, PFS/TTP
From the text: Eligible patients were >18 years old with metastatic or unresectable thyroid carcinoma for which curative measures were no longer effective. Patients had evidence of measurable disease by RECIST criteria. All patients enrolled had evidence of disease progression in the year prior to initiation of treatment. Prior radioactive iodine treatments and one prior biologic treatment (kinase inhibitor, vaccine or antibody-based therapy) were allowed, but not within 3 weeks of treatment. […] Pre-menopausal women were required to have a negative pregnancy test and all patients of were required to use contraception.
Patients were ineligible if they had previous exposure to a Ras pathway inhibitor (including trastuzumab, EGFR inhibitors, farnesyl transferase inhibitors or MEK inhibitors) or were unable to swallow and retain oral pills. All patients provided written informed consent prior to enrollment on the trial. The study protocol was approved by the Institutional Review Board of the University of Pennsylvania.
(§1) This was an open-label, single institution phase II study of oral sorafenib in patients with metastatic thyroid carcinoma, including differentiated, poorly differentiated, medullary, and anaplastic subtypes. […] A cycle was defined as 4 weeks. Screening evaluations were completed within 2 weeks prior to the start of study drug, including medical history, demography, review of prior treatment, physical exam, 12-lead EKG, and laboratory evaluations including serum thyroid stimulating hormone (TSH) and thyroglobulin, and urinalysis. Radiological tests to identify target lesions were performed within 4 weeks of the first dose of study drug.
(§2) After beginning treatment, patients were followed at four-week intervals. At each visit, a history and physical examination were performed, and a CBC, chemistry panel, TSH and thyroglobulin drawn. Patients were assessed for new symptoms, compliance with study medications (pill count), and concomitant medications. Dose adjustments were made as needed for toxicity. Response was assessed radiographically after eight and sixteen weeks of treatment and every twelve weeks thereafter.
(§3) The study endpoints of best objective response rate and stable disease were measured based on the findings on computed tomography (CT) or magnetic resonance imaging (MRI) using RECIST. Additional endpoints included best response, duration of response and time to disease progression (TTP) on the basis of RECIST, clinical progression, or death. While TTP was the original endpoint, PFS and TTP were identical in this study, and PFS have been used in this report as it has become the more standard progression endpoint. All responses were confirmed by a study-designated radiologist. Adverse events were graded with the use of Common Terminology Criteria for Adverse Events, version 3.0 (CTCAE v3.0).
This study was designed to exclude the null hypothesis response rate of 5% using a Simon two-stage design; the first stage included 30 patients, with an optional second stage including 25 additional patients if at least one response was observed. The observed response rate was tested against the null rate of 5% using an exact test for binomial proportions. Estimates of PFS (time from beginning on study drug to earlier of progression or death) with associated 95% confidence intervals were obtained using the method of Kaplan and Meier. Comparison of PFS among histological subtypes was conducted using the logrank test. All enrolled patients who received at least one day of treatment were included in this intent-to-treat analysis.
2) Evidence of measurable disease by RECIST criteria 3) Any number of prior radioactive iodine treatments and up to one prior biologic treatment.
Primary Endpoint: Efficacy of sorafenib (objective response rate) in patients with metastatic thyroid carcinoma.
Patients on study were monitored with CT scans every 2 months and PET scans prior to beginning therapy and 4 weeks after starting treatment. […]

[3] = Phase II study of sorafenib: adverse events (CTCAE v3.0), dose changes, TSH
From the text: as §1, §2, §3

serum thyroglobulin = experiment: Serum thyroglobulin (sTG) monitoring in patients on sorafenib
From the text: as §1, §2
sTG levels are monitored monthly as part of the clinical trial. As sTG can rise due inadequate suppression of TSH, sTG levels are analyzed in the context of the serum TSH. In patients where […]. In addition, high levels of anti sTG antibodies can render the sTG levels un-interpretable. To date one patient has TSH that was not adequately controlled, and a second patient with anti sTG antibodies in excess of 1000 IU/ml. These patients are excluded from this analysis. sTG levels are correlated with clinical outcomes, and results of imaging and tissue analysis as described in the section on statistical analysis below.

Ki-67 = experiment: Immunohistochemistry of patient tumor tissue before and on sorafenib: Ki-67
From the text: (§4) Paraffin embedded tumor specimens from the patients' primary surgery and from lymph node biopsies after two weeks (Patient 1) and 17 months on treatment (Patient 2) were obtained. Thin (5 μm) sections from tumor tissue were cut and stained for the proliferation marker Ki-67 (Dakocytomation), and signaling markers p-ERK and p-AKT (Cell Signaling Technology) which are downstream indicators of BRAF and VEGFR2 activity. P-ERK is good reporter for BRAF activity, while p-AKT likely reflects signaling through several pathways including VEGFR. Slides were counterstained with hematoxylin and mounted in vectashield (Vector Labs). Two independent, blinded pathologists scored the slides based on intensity of stain and percent of cells staining positively.
(§5) Proliferation and cellular signaling in the tumor cell (TC) and the endothelial cell (EC) compartments were evaluated by immunohistochemistry (IHC).

p-ERK = experiment: Immunohistochemistry of patient tumor tissue before and on sorafenib: p-ERK
From the text: as §4, §5

p-AKT = experiment: Immunohistochemistry of patient tumor tissue before and on sorafenib: p-AKT
From the text: as §4, §5

[4] = tested on: metastatic papillary thyroid carcinoma (mPTC); experiment: Response by CT and PET scan in two patients with metastatic papillary thyroid carcinoma on sorafenib
Method: Patient 1: A person palpated a right-sided neck mass in August 2004. The patient underwent total thyroidectomy with lymph node dissection and pathology confirmed mPTC in one of eight lymph nodes. They were treated with ^131I and placed on thyroid hormone replacement. In August 2005, an enlarged lymph node was palpated in their neck.
Treatment began on Apr. 18, 2006. Toxicity was assessed at every four weeks and response to treatment was assessed using serial CT and PET scans.
Patient 2: A person presented with a sore throat in March 2002. Their physician noted only right sided cervical lymphadenopathy. […] Thyroidectomy and right neck lymph node dissection removed a 2.5 cm tall-cell PTC with 12 of 49 lymph nodes containing mPTC.
PET scans were obtained on a dedicated whole-body PET scanner (C-PET, Phillips). At FDG injection, patients had fasted for 6 hours and blood glucose levels were less than 150 mg/dL. Image acquisition started 60 min following intravenous administration of FDG at a dose of 1.85 MBq/kg (0.05 mCi/kg) body weight. A transmission scan was obtained for attenuation correction.

[5] = Table 3 summary, 42 total / 31 evaluable patients
[6] = first 30 patients as of May 25, 2008, follow-up Kaplan-Meier analysis
[7] = first 30 patients, intention-to-treat
[8] = first 30 patients, intention-to-treat, 400 mg orally twice a day
[9] = Patient 2, after 17 months of treatment
[10] = Patient 1, after 2 weeks of treatment

COc1ccc(/C=C\c2cc(OC)c(OC)c(OC)c2)cc1OP(=O)(O)O [CA4P]
Ktr response ([1]; certain patients, larger pre-treatment tumor Ktr values, incl. two with thyroid cancer): Strong Ktr responses | Ktr response ([1]; other patients): little or no effect

CNC(=O)c1cc(Oc2ccc(NC(=O)Nc3ccc(Cl)c(C(F)(F)F)c3)cc2)ccn1 [sorafenib]
Clinical benefit (PR + SD) rate [2, 5]: 72% | Clinical benefit (PR + SD), number of patients [2, 5]: 13 | Partial response (≧30%) rate [2, 5]: 24% | Partial response (≧30%), number of patients [2, 5]: 10 | Stable disease rate [2, 5]: 48% | Stable disease, number of patients [2, 5]: 19 | Overall median progression free survival ([2]; all 30 patients, Kaplan-Meier, analysis four months after last patient started): 79 weeks and 79.0 weeks | DTC patients median progression free survival ([2]; differentiated thyroid cancers alone, Kaplan-Meier): 84 weeks | Largest decrease in target lesions by RECIST (upper end of range of responses) ([2]; first 30 patients): 80% | Median time to progression / PFS, all patients [2, 6]: 72 weeks | Median time to progression / PFS, differentiated thyroid cancers (DTC) [2, 6]: 84 weeks | Clinical benefit (PR + SD), number of patients [2, 7]: 23 | Partial response (PR, ≧30%), number of patients [2, 7]: 7 | Progressive disease as best response, number of patients [2, 7]: 2 | Progressive disease as best response, rate [2, 7]: (3%) | Stable disease (SD), number of patients [2, 7]: 16 | Best response by RECIST: complete response rate [2, 8]: (0%) | Best response by RECIST: complete response, number of patients [2, 8]: 0 | Decrease in size of visible shoulder nodule ([2]; patient with poorly differentiated thyroid cancer, at 4 weeks, before progression): 50% | CT response of target lesions, lung metastases ([2]; person, follicular thyroid cancer, after 16 weeks, FIG. 3A): partial response | CT burden of lung disease ([2]; person, papillary thyroid cancer, miliary lung metastases, after 33 weeks, FIG. 3B): marked improvement | Disease symptoms (cough, dyspnea on exertion) ([2]; two patients of FIG. 3, within the first six months of treatment): complete resolution of their symptoms | Patients requiring drug holidays due to adverse events ([3]; 30 patients): 63% | Patients who discontinued treatment due to adverse events ([3]; 30 patients): 20% | Patients who experienced some weight loss ([3]; 30 patients): 60% | Patients with doses reduced to control toxicities ([3]; 30 patients): 47% | Toxicity leading to withdrawal, single patients ([3]; CTCAE grade): grade 3 rash; also recorded: grade 2 fatigue; also recorded: grade 4 liver toxicity | Severity of treatment-related adverse events ([3]; CTCAE v3.0): predominantly of grade 1 or 2 | Patients WD due to toxicity, number ([3]; Table 3 summary, 42 total patients): 2 | Outcome of LFT elevations after eight weeks, one patient ([3]; despite dose reductions and cessation): died of liver failure | Patients with rise in serum TSH to levels greater than 0.10 mIU/L ([3]; while on sorafenib, 30 patients): 33% | Patients with marked response in serum thyroglobulin levels (serum thyroglobulin; Seventeen of 19 patients with serial levels): 95% | Thyroglobulin levels (serum thyroglobulin; approximately 15 new patients enrolled since November 2008, iodine non-avid metastatic thyroid cancer): increased | Iodine uptake (serum thyroglobulin; inferred from thyroglobulin levels, iodine non-avid metastatic thyroid cancer): effective in increasing the iodine uptake | Course of sTG early on treatment (serum thyroglobulin; most patients, first two to four months): falls precipitously; also recorded: dropped precipitously | Initial decline of serum thyroglobulin (sTG) (serum thyroglobulin; patient 5, stably suppressed TSH, FIG. 4): 25 % baseline levels | Mean decrease in serum thyroglobulin (serum thyroglobulin; within four months of starting treatment): 70% | Ki-67 positive cells (Ki-67; Patient 1, tissue after two weeks of treatment (pre-treatment 1% of TCs)): less than 1% | Ki-67 positive TCs versus pre-treatment (Ki-67; [9]): no change in the number of positive cells | p-ERK staining in ECs (p-ERK; [10]): no longer detected | p-ERK staining in TCs (p-ERK; [10]): decreased | p-ERK expression in ECs (p-ERK; [9]): markedly increased | p-ERK staining in TCs (p-ERK; [9]): unchanged | p-AKT staining in ECs (p-AKT; [10]): decreased | p-AKT staining in TCs (p-AKT; [10]): did not show any change | p-AKT staining in ECs and TCs (p-AKT; Patient 2, at 17 months): slight increase | Progression-free survival ([4]; Patient 1): ≥ 1.3 years | Decrease of target lesions (PR) ([4]; Patient 1, after 12 months): 30% | Decrease in size of lung lesions by RECIST ([4]; Patient 1, after 12 weeks): 25% | Progression-free survival ([4]; Patient 2): ≥ 3.7 years | Maintained partial response ([4]; Patient 2, after 3.7 years on sorafenib): 70% | Decrease of largest target lesion ([4]; Patient 2, after 12 weeks): 52% | Decrease of largest target lesion ([4]; Patient 2, continued shrinkage after 20 weeks): 72%
